Measured values as given in patent US5428019A, “Bombesin analogs” (Merrell Dow Pharmaceuticals Inc., priority 1994, dated 1995).
Where two headings read alike, the source gives them in different places. Where a SMILES comes first, the peptide text is derived from it. [ ]: non-standard residue; d: D form. The star is where a group is joined. X1 = CC(C)C[C@@H](C(N)=O)N(C)C[C@H](Cc1ccccc1)N*; pGlu = O=C1CC[C@@H](C(=O)O)N1

Assays:
Bombesin Receptor = target: T1, Bombesin Receptor (Mus musculus, UniProt P21729); assay: Phosphatidylinositol turnover in chopped mouse pancreas; type: cell-based; design: key to PI Turnover Agonist: (+) represents agonist activity; (-) indicates no agonist activity
T1 construct: Pancreata from mice were chopped at 350 μm with a tissue chopper and pooled; from tissue; host or cells: chopped mouse pancreas
T1 sequence (P21729 whole entry): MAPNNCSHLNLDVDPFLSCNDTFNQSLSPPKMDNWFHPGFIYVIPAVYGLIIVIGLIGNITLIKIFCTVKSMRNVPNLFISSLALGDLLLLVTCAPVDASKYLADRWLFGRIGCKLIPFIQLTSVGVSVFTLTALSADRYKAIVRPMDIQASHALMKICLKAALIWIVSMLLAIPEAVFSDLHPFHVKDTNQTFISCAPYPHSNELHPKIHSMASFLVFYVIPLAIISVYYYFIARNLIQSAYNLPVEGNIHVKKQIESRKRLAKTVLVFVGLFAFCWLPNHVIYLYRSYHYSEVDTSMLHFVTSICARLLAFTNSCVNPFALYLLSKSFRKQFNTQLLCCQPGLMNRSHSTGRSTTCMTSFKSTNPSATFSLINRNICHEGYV
Description: Pancreata from mice were chopped at 350 μm with a tissue chopper and pooled. The chopped tissue was washed twice with oxygenated Krebs-Hepes, then incubated for 30 minutes in 37° C. oxygenated Krebs-Hepes buffer with fresh buffer after 15 minutes. The tissue was then incubated in this buffer containing 200 μCi of [^3 H] inositol at 37° C. for 1 hour. The tissue was then washed twice and incubated for another 30 minutes in oxygenated Krebs-Hepes (containing 10 mM Li^+) at 37° C. with a fresh buffer change after 15 minutes. Portions of the tissue mass (approximately 10 mg per assay tube) were then placed in Li^+ buffer with protease inhibitors, (40 μg/ml bacitracin, 4 μg/ml leupeptin, 4 μg/ml chymostatin, 8 μg/ml thiorphan), 0.1% BSA, and 0.1-10 μM peptide in a final volume of 250 μl. After 60 minutes at room temperature, the phosphatidylinositol turnover was terminated by the addition of 940 μl chloroform:methanol (1:2), followed by 310 μl chloroform, followed by 310 μl water. Each tube was then vortexed for 5 seconds and then centrifuged at 2500 x g for 10 minutes to separate the phases. 50 μl of the bottom phase (chloroform) was withdrawn from each tube and placed in a counting vial, dried, and counted in scintillation fluid. 900 μl of the top (aqueous) phase were then mixed with 2.1 ml water and loaded onto a 0.5 ml Biorad AG-1X8 (formate) ion exchange column. The material on the columns was washed in order with: 1) 10 ml of water 2) 5 ml of 5 mM disodium tetraborate/60 mM sodium formate 3) 10 ml of 1 M ammonium formate in 0.1 M formic acid. The final (third) wash was collected and one ml was mixed with 14 ml of Bio-Safe scintillant and counted. The ratio of these counts (total inositol phosphates) to the corresponding organic phase counts (inositol incorporated into the tissue) was then calculated for each sample. The ratios in the presence of test compound and/or standards were then compared to the ratios for control tubes (i.e., no stimulating agonist). The abilities of test compounds to stimulate phosphatidyl-inositol turnover were determined with the aid of a computer program. […] The ordinate (y-axis) indicates the observed PI turnover as a percentage of control. Values are mean±standard error of triplicate determinations.

[1] = system: cell surface receptors that bind bombesin; settings: background section; read-out: KD of high-affinity cell surface receptors that bind bombesin; cited from earlier work
bombesin/GRP receptor = target: T2, bombesin/GRP receptor (Mus musculus, UniProt P21729); assay: Competition for 125I-GRP binding to murine pancreatic membranes
T2 construct: The pancreata from one or more mice were pooled and homogenized; from tissue; host or cells: mouse pancreas membranes
T2 sequence (P21729 whole entry): as above
Description: The pancreata from one or more mice were pooled and homogenized in 50 mM HEPES (pH 7.4) containing 120 mM NaCl, 5 mM KCl, 1 mM EDTA and protease inhibitors (1 μg/ml aprotinin, leupeptin, pepstatin; 4 μg/ml bacitracin, antipain, bestatin; 100 μM PMSF) at 4° C. and centrifuged at 37,500 X g for 15 minutes. The pellet was resuspended in 50 mM HEPES (pH 7.4) containing 10 mM EDTA, 300 mM KCl, and protease inhibitors, and then incubated for 30 minutes at 4° C. The suspension was centrifuged as above and the pellet was washed two times in 50 mM HEPES (pH 7.4) containing 8 μg/ml thiorphan and protease inhibitors, and again centrifuged. The tissue was then resuspended in incubation buffer (1 ml per 4 mg pancreas) and incubated for 15 minutes at room temperature, then 250 μl were added to each assay tube to commence the assay. […] The assay was allowed to proceed to equilibrium for 90 minutes at room temperature. After this time, the contents of each tube was rapidly filtered over Whatman GF/B filters presoaked in 0.1% polyethyleneimine and the filters were rapidly washed three times with ice-cold 50 mM HEPES (pH 7.4). Filter-bound radioactivity was quantitated in a gamma counter. […] Affinity and maximal binding were calculated with LIGAND (Biosoft, Cambridge, UK) (FIGS. 1 and FIG. 2)
The abscissa (x-axis) logarithmically indicates the concentration of agonists being tested.

| Kd (bombesin/GRP receptor; duplicate, 20 pM 125I-GRP, two-site fit, read-out: Kd, high affinity class of sites (FIG. 2)) [nM] | Kd (bombesin/GRP receptor; duplicate, 20 pM 125I-GRP, two-site fit, read-out: Kd, low affinity class of sites (FIG. 2)) [nM] | Kd (bombesin/GRP receptor; first of two values in the cell, mouse pancreas, averages of multiple experiments, read-out: Kd (nM), high affinity class of sites) [nM] | Kd (bombesin/GRP receptor; second of two values in the cell, mouse pancreas, averages of multiple experiments, read-out: Kd (nM), low affinity class of sites) [nM] | receptors in the high affinity state (FIG. 2) (bombesin/GRP receptor; two-site fit, 20 pM 125I-GRP) [%] | PI Turnover % Inhibition (Bombesin Receptor; antagonist activity, referenced to the stimulation produced by 100 nM GRP) [%] | SMILES | PI Turnover Agonist (Bombesin Receptor) | Kd [1] [nM] | PI turnover as a percentage of control (FIG. 3) (Bombesin Receptor; triplicate determinations) |
| --- | --- | --- | --- | --- | --- | --- | --- | --- | --- |
|  |  |  |  |  |  | CSCC[C@H](NC(=O)[C@H](CC(C)C)NC(=O)[C@H](Cc1cnc[nH]1)NC(=O)CNC(=O)[C@@H](NC(=O)[C@H](C)NC(=O)[C@H](Cc1c[nH]c2ccccc12)NC(=O)[C@H](CCC(N)=O)NC(=O)[C@H](CC(N)=O)NC(=O)CNC(=O)[C@H](CC(C)C)NC(=O)[C@H](CCCN=C(N)N)NC(=O)[C@H](CCC(N)=O)NC(=O)[C@@H]1CCC(=O)N1)C(C)C)C(N)=O [Bombesin, pGlu--Gln--Arg--Leu--Gly--Asn--Gln--Trp--Ala--Val--Gly--His--Phe--Met--NH2] | + | 1 |  |
| 0.08 | 16 | 0.019 | 23 | 20 | -16 | CC(C)C[C@@H](C(N)=O)N(C)C[C@H](Cc1ccccc1)NC(=O)[C@H](Cc1c[nH]cn1)NC(=O)CNC(=O)[C@@H](NC(=O)[C@H](C)NC(=O)[C@H](Cc1c[nH]c2ccccc12)NC(=O)[C@H](CCC(N)=O)NC(=O)[C@@H]1CCC(=O)N1)C(C)C [[Phe^8 .psi.[CH2 N(CH3)]Leu^9]litorin] ([pGlu]QWAVGH-X1) | + |  | statistically significant (P<0.005) increase in PI turnover |
